Measured values published in patent US20200109126A1 (priority 2017, published 2020).
Where two headings read alike, the source gives them in different places.

Legend:
humanDOR = humanDOR (Homo sapiens, UniProt P41143); assay: Receptor binding with [3H]diprenorphine at human DOR
hKOR = hKOR (Homo sapiens, UniProt P41145); assay: Receptor binding with [3H]diprenorphine at hKOR
hMOR = hMOR (Homo sapiens, UniProt P35372); assay: Receptor binding with [3H]diprenorphine at hMOR
[1] = PZM analogs, (n) = number of independent experiments, read-out: binding affinity Ki hDOR
[2] = PZM analogs, (n) = number of independent experiments, read-out: binding affinity Ki hKOR
[3] = PZM analogs, (n) = number of independent experiments, read-out: binding affinity Ki hMOR
[4] = ± SD (two experiments) or SEM, (n) experiments, read-out: humanDOR [3H]dyprenorphine Ki
[5] = ± SD (two experiments) or SEM, (n) experiments, read-out: hKOR [3H]dyprenorphine Ki
[6] = ± SD (two experiments) or SEM, (n) experiments, read-out: hMOR [3H]dyprenorphine Ki

hKOR, sequence (P41145 whole entry): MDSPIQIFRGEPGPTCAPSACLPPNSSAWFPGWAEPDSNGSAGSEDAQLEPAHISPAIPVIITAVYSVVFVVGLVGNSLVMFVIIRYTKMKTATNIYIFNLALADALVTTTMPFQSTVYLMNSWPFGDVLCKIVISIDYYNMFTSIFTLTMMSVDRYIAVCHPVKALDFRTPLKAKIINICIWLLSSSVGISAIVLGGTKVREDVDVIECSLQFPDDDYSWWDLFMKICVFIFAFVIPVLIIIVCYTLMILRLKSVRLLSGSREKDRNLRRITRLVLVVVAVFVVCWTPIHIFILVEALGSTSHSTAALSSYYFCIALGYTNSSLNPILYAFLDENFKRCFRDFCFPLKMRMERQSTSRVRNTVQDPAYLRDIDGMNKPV
hMOR, sequence (P35372 whole entry): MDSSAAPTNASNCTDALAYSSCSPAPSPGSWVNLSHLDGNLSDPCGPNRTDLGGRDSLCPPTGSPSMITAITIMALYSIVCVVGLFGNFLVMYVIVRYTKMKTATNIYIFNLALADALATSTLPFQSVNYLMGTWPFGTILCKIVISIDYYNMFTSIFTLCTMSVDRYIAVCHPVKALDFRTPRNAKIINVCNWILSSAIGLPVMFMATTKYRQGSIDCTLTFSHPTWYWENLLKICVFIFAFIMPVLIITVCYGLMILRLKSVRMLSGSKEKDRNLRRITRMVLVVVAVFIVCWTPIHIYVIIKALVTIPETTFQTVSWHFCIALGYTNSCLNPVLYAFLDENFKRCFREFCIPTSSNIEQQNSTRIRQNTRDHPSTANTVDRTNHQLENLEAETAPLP
humanDOR, sequence (P41143 whole entry): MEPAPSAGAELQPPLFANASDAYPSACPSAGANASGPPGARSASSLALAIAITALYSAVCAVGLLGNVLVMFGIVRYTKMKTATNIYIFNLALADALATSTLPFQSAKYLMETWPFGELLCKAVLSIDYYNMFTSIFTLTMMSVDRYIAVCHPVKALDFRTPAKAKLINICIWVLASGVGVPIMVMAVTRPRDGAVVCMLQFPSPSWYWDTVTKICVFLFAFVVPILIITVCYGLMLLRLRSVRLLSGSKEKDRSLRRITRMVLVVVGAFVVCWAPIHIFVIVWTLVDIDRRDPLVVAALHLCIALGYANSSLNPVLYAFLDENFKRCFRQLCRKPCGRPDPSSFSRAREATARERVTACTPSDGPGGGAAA

Structure (SMILES) | Ki (humanDOR; [1]) [nM] | Ki (hKOR; [2]) [nM] | Ki (hMOR; [3]) [nM] | further results
CN(C)[C@@H](CNC(=O)NCCc1ccsc1)Cc1ccccc1 | 25000 | 8100 | 4200 | 
CN(C)[C@H](CNC(=O)NCCc1ccsc1)Cc1ccccc1 | 4500 | 3100 | 350 | 
C[C@@H](Cc1ccsc1)NC(=O)NC[C@@H](Cc1ccccc1)N(C)C | 11000 | 3100 |  | 
C=CCN(C[C@H](Cc1ccccc1)N(C)C)C(=O)N[C@@H](C)Cc1ccsc1 | ~15000 | 1700 | 3200 | 
C=CCN(C[C@H](Cc1ccccc1)N(C)C)C(=O)N[C@H](C)Cc1ccsc1 | ~15000 | 3100 | 4100 | 
CN(C)[C@@H](CNC(=O)NC(C)(C)Cc1ccsc1)Cc1ccccc1 | 2400 | 960 | 180 | 
CN(C)[C@H](CNC(=O)NC(C)(C)Cc1ccsc1)Cc1ccccc1 | 3000 | 790 | 210 | 
CN(C)[C@@H](CNC(=O)NC(C)(C)Cc1ccccc1)Cc1ccccc1 | 1000 | 1100 | 640 | 
CN(C)[C@H](CNC(=O)NC(C)(C)Cc1ccccc1)Cc1ccccc1 | 3300 | 930 | 490 | 
CN(C)[C@@H](CNC(=O)NCCc1ccsc1)Cc1ccc(O)cc1 | 11000 | 5200 | 1500 | 
CN(C)[C@H](CNC(=O)OCCc1ccsc1)Cc1ccc(O)cc1 | 570 | 190 | 170 | 
CN[C@H](CNC(=O)NCCc1ccccc1)Cc1ccc(O)cc1 |  |  | 290 | 
C[C@H](Cc1ccsc1)NC(=O)NC[C@@H](Cc1ccc(O)cc1)N(C)C | 4100 | 3100 |  | 
C[C@@H](Cc1ccsc1)NC(=O)NC[C@@H](Cc1ccc(O)cc1)N(C)C | 4800 | 2300 |  | 
CN(C)[C@H](CNC(=O)CCCc1ccccc1)Cc1ccc(O)cc1 | 370 | 100 | 72 | 
C[C@H](Cc1csc2ccccc12)NC(=O)NC[C@H](Cc1ccc(O)cc1)N(C)C | 83 | 67 | 43 | 
CC(C)N(C[C@H](Cc1ccc(O)cc1)N(C)C)C(=O)N[C@@H](C)c1cccc2ccccc12 | 570 | 920 | 400 | 
CN(C)[C@@H](CNC(=O)NC(C)(C)Cc1ccsc1)Cc1ccc(O)cc1 | 2900 | 1300 | 310 | 
CN(C)[C@@H](CNC(=O)NC(C)(C)Cc1ccccc1)Cc1ccc(O)cc1 | 3600 | 1500 | 460 | 
C[C@@H](Cc1ccsc1)NC(=O)NC[C@H](Cc1ccnc(O)c1)N(C)C | 4100 | 1200 | 210 | 
Cc1cc(O)cc(C)c1C[C@@H](CNC(=O)NCCc1ccsc1)N(C)C | 51 | 27 | 6.2 | 

Structure (SMILES) | Ki (humanDOR; [1]) [nM] | Ki (hKOR; [2]) [nM] | Ki (hMOR; [3]) [nM] | further results
CN(C)[C@H](CNC(=O)NCCc1cn(Cc2ccccc2)nn1)Cc1ccc(O)cc1 | 380 |  |  | Ki (hKOR): 1400 nM; Ki (hMOR): 200 nM
CN(CCCl)C(CNC(=O)NCCc1ccccc1)Cc1ccc(O)cc1 (stereo not shown) |  |  |  | Ki (humanDOR; binding affinity Ki hDOR, PZM analogs, (n) = number of independent experiments): 360 nM
CN(CCO)C(CNC(=O)NCCc1ccccc1)Cc1ccc(O)cc1 (stereo not shown) |  |  |  | Ki (humanDOR): 1800 nM; Ki (hKOR): 1300 nM; Ki (hMOR): 970 nM
CN[C@H](CNC(=O)N[C@@H](C)Cc1ccsc1)Cc1ccc(O)cc1 | 700 | 240 |  | 
C[C@@H](Cc1ccsc1)NC(=O)NCC(Cc1ccc(O)cc1)N(C)Cc1ccccc1 (stereo partly shown) | 720 | 210 | 220 | 
COc1ccccc1CCNC(=O)NCC(Cc1ccc(O)cc1)N(C)C (stereo not shown) | 150 | 140 | 22 | 
COc1cccc(CCNC(=O)NCC(Cc2ccc(O)cc2)N(C)C)c1 (stereo not shown) | 220 | 1300 | 110 | 
COc1ccc(CCNC(=O)NCC(Cc2ccc(O)cc2)N(C)C)cc1 (stereo not shown) | 10000 | 1500 | 330 | 
CN(C)C(CNC(=O)NCCc1ccccc1F)Cc1ccc(O)cc1 (stereo not shown) | 53 | 440 | 43 | 
CN(C)C(CNC(=O)NCCc1cccc(F)c1)Cc1ccc(O)cc1 (stereo not shown) | 250 | 170 | 36 | 
CN(C)C(CNC(=O)NCCc1ccc(F)cc1)Cc1ccc(O)cc1 (stereo not shown) | 250 | 190 | 27 | 
O=C(NCCc1ccccc1)NC[C@H](Cc1ccc(O)cc1)N1CCCC1 | 1500 | 770 | 660 | 
CN(C)[C@H](CNC(=O)NCCN1C(=O)C2C3C=CC(O3)C2C1=O)Cc1ccc(O)cc1 (stereo partly shown) |  |  |  | Ki (humanDOR): 36000 nM; Ki (hKOR): 8200 nM; Ki (hMOR): 2300 nM
CC(Cc1csc2ccccc12)NC(=O)NC[C@H](Cc1ccc(O)cc1)N(C)C (mixture of isomers) |  | 19 | 14 | 
C[C@H](NC(=O)NC[C@H](Cc1ccc(O)cc1)N(C)C)c1ccccc1 (single isomer, unassigned) | 590 | 35 | 38 | 
CC(Cc1ccsc1)NC(=O)NCC(Cc1ccc(O)cc1)N(C)C (single isomer, unassigned) [BD 122DR] |  |  |  | Ki (humanDOR; [4]): 4100 nM; Ki (hKOR; [5]): 3100 nM
CC(Cc1ccsc1)NC(=O)NCC(Cc1ccc(O)cc1)N(C)C (single isomer, unassigned) [BD 122DS] |  |  |  | Ki (humanDOR; [4]): 4800 nM; Ki (hKOR; [5]): 2300 nM
CC(Cc1ccsc1)NC(=O)NCC(Cc1ccccc1)N(C)C (single isomer, unassigned) [BD 127DR] |  |  |  | Ki (humanDOR; [4]): 12000 nM; Ki (hKOR; [5]): 5000 nM
CC(Cc1ccsc1)NC(=O)NCC(Cc1ccccc1)N(C)C (single isomer, unassigned) [BD 127DS] |  |  |  | Ki (humanDOR; [4]): 11000 nM; Ki (hKOR; [5]): 3100 nM
CC(Cc1ccsc1)NC(=O)NCC(Cc1ccccc1)N(C)C (single isomer, unassigned) [BD 127LR] |  |  |  | Ki (humanDOR; [4]): 1800 nM; Ki (hKOR; [5]): 1300 nM
C[C@@H](Cc1ccsc1)NC(=O)NC[C@H](Cc1ccccc1)N(C)C [BD 127LS] |  |  |  | Ki (humanDOR; [4]): 2800 nM; Ki (hKOR; [5]): 1000 nM

Structure (SMILES) | Ki (humanDOR; [1]) [nM] | Ki (hKOR; [2]) [nM] | Ki (hMOR; [3]) [nM] | further results
CN(C)[C@H](CNC(=O)NC(C)(C)Cc1ccsc1)Cc1cccc(O)c1 [DD 46L, (S)-1-(2-(dimethylamino)-3-(3-hydroxyphenyl)propyl)-3-(2-methyl-1-(thiophen-3-yl)propan-2-yl)urea] |  |  |  | Ki (humanDOR; [4]): 190 nM; Ki (hKOR; [5]): 32 nM; Ki (hMOR; [6]): 25 nM
C[C@H](NC(=O)NC[C@H](Cc1ccc(O)cc1)N(C)C)c1cccc2ccccc12 [DD 50LS, 1-((S)-2-(dimethylamino)-3-(4-hydroxyphenyl)propyl)-3-((S)-1-(naphthalen-1-yl)ethyl)urea] |  |  |  | Ki (humanDOR; [4]): 570 nM; Ki (hKOR; [5]): 71 nM; Ki (hMOR; [6]): 84 nM
Cc1ccc([C@H](C)NC(=O)NC[C@H](Cc2ccc(O)cc2)N(C)C)cc1 [DD 51LS, 1-((S)-2-(dimethylamino)-3-(4-hydroxyphenyl)propyl)-3-((S)-1-(p-tolyl)ethyl)urea] |  |  |  | Ki (humanDOR): 700 nM; Ki (hKOR): 180 nM; Ki (hMOR): 150 nM
C[C@H](Cc1ccccc1)NC(=O)NC[C@H](Cc1ccc(O)cc1)N(C)C [DD 61L-A, 1-((S)-2-(dimethylamino)-3-(4-hydroxyphenyl)propyl)-3-((R)-1-phenylpropan-2-yl)urea] |  |  |  | Ki (humanDOR; [4]): 91 nM; Ki (hKOR; [5]): 67 nM; Ki (hMOR; [6]): 81 nM
C[C@H](Cc1ccsc1)NC(=O)NC[C@@H](Cc1ccccc1)N(C)C [drawing 489] | 12000 | 5000 |  | 
C[C@@H](Cc1ccsc1)NC(=O)NC[C@H](Cc1ccccc1)N(C)C [drawing 492] | 2800 | 1000 |  | 
CN(C)[C@H](CNC(=O)NCCc1ccsc1)Cc1ccc(O)cc1 [drawing 500] | 330 | 150 | 43 | 
CN(C)[C@H](CNC(=S)NCCc1ccsc1)Cc1ccc(O)cc1 [drawing 501] | 70 | 86 | 29 | 
CN(C[C@H](Cc1ccc(O)cc1)N(C)C)C(=O)NCCc1ccccc1 [drawing 503] | 1700 | 340 | 610 | 
CN(CCc1ccccc1)C(=O)NC[C@H](Cc1ccc(O)cc1)N(C)C [drawing 504] | 1200 | 160 | 320 | 
CN(CCc1ccccc1)C(=O)N(C)C[C@H](Cc1ccc(O)cc1)N(C)C [drawing 505] | 4200 | 220 | 490 | 
CN(CC1CC1)[C@H](CNC(=O)NCCc1ccccc1)Cc1ccc(O)cc1 [drawing 507] |  |  | 760 | 
C[C@@H](Cc1ccsc1)NC(=O)NC[C@H](Cc1ccc(O)cc1)N(C)C [drawing 512] | 1000 | 18 |  | 
CN(C)[C@H](CNC(=O)NCCc1ccccc1)Cc1ccc(O)cc1 [drawing 514] | 250 | 45 | 47 | 
C[C@H](Cc1ccccc1)NC(=O)NC[C@H](Cc1ccc(O)cc1)N(C)C [drawing 516] | 91 | 67 | 81 | 
C[C@@H](Cc1ccccc1)NC(=O)NC[C@H](Cc1ccc(O)cc1)N(C)C [drawing 517] | 360 | 37 | 42 | 
C[C@@H](Cc1csc2ccccc12)NC(=O)NC[C@H](Cc1ccc(O)cc1)N(C)C [drawing 521] | 110 | 22 | 8.3 | 
Cc1ccc([C@H](C)NC(=O)NC[C@H](Cc2ccc(O)cc2)N(C)C)cc1 [drawing 523] | 700 | 180 | 150 | 
C[C@H](NC(=O)NC[C@H](Cc1ccc(O)cc1)N(C)C)c1cccc2ccccc12 [drawing 524] | 540 | 74 | 85 | 
CN(C)[C@H](CNC(=O)NC1Cc2ccccc2C1)Cc1ccc(O)cc1 [drawing 526] | 56 | 51 | 7.7 | 
